Target: T1, human GHSR1a (Homo sapiens, UniProt Q92847)
T1 construct: expressed in transfected cells
Test: Aequorin luminescent functional assay (intracellular Ca2+, ghrelin-stimulated)
Conditions: stable cell line expressing human GHSR1a and apoaequorin; final ghrelin 3x EC50 (20 nM); read-out: Class (based on IC50 values)
Description: IC50 values of inventive compounds may be assessed as follows. An aequorin (Euroscreen) luminescent assay (Stabels et al., 1997) measuring the intracellular Ca^2+ concentration was used as the functional assay to evaluate the potency of the compounds. A stable cell line, expressing human GHSR1a and apoaequorin in mitochondria was used in the aequorin assay. 5×10^6 cells per mL were incubated at room temperature in HyClone Media (Perbio) supplemented with 2 μM coelenterazine (Molecular Probes). After 2 hrs cells were diluted to 1×10^6 cells per ml in HyClone Medium.
50 μL of the cell suspension was added to each well of a 96-well plate containing 50 μL of compound, diluted in HyClone Medium. The cell suspension/compound mixture was incubated for 30 seconds before 50 μL of a 9× EC50 concentrations of a human ghrelin solution, in HyClone Medium, was injected. The final Ghrelin concentration was 3× EC50 (20 nM). Aequorin luminescence elicited by intracellular Ca^2+ in the cells was recorded for a total of 60 seconds with a microplate luminometer (Microlumate, Berthold). IC50 of the compounds in this assay was calculated with Prism 4.

T1 sequence (Q92847 whole entry): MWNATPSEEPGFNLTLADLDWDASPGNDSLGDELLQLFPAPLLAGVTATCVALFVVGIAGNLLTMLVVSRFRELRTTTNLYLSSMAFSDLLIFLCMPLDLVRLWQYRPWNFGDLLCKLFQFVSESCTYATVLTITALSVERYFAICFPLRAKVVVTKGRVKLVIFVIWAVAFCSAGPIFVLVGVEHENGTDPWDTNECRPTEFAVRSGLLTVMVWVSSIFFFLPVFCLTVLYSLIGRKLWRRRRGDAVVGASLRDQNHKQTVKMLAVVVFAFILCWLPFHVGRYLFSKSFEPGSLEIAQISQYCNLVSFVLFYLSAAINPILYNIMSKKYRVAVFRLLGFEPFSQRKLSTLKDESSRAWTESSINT

| IC50 [nM] | Compound |
| --- | --- |
| ≤ 10 | Cc1cccc(C)c1Oc1ccc2c(c1)C(=O)N([C@@H](C(=O)N1CCC(NC(C)c3ccccc3)CC1)C(C)C)CC(=O)N2 (stereo partly drawn) |
| 10 to 50 | CC(C)[C@H](C(=O)NC1CCN(Cc2ccccc2)CC1)N1CC(=O)Nc2ccc(Oc3ccc(F)cc3)cc2C1=O |
| ≤ 10 | Cc1ccccc1Oc1ccc2c(c1)C(=O)N([C@@H](C(=O)N1CCC(N[C@@H]3CCc4ccccc43)CC1)C(C)C)CCN2 |
| 10 to 50 | CC(C)C(COC(=O)C1CCN(Cc2ccccc2)CC1)N1CC(=O)Nc2ccc(Oc3ccc(F)cc3)cc2C1=O (stereo not drawn) [1-benzyl-piperidine-4-carboxylic acid 2-[7-(4-fluoro-phenoxy)-2,5-dioxo-1,2,3,5-tetrahydro-benzo[e][1,4]diazepin-4-yl]-3-methyl-butyl ester] |
| 10 to 50 | CC(C)C(C(=O)OC1CCN(Cc2ccccc2)CC1)N1CC(=O)Nc2ccc(Oc3ccccc3)cc2C1=O (stereo not drawn) [2-(2,5-dioxo-7-phenoxy-1,2,3,5-tetrahydrobenzo[e][1,4]diazepin-4-yl)-3-methyl-butyric acid 1-benzyl-piperidin-4-yl ester] |
| ≤ 10 | C[C@H](CO)NCc1cccc([C@@H](C2CC2)N2CCc3ccc(Oc4ccc(F)cc4F)cc3C2=O)n1 [2-((R)-cyclopropyl(6-(((R)-1-hydroxypropan-2-ylamino)methyl)pyridin-2-yl)methyl)-7-(2,4-difluorophenoxy)-3,4-dihydroisoquinolin-1(2H)-one] |
| ≤ 10 | O=C1c2cc(Oc3ccc(F)cc3F)ccc2CCN1C(c1cccc(CCNCC2CC2)c1)C1CC1 (stereo not drawn) [2-(cyclopropyl-{3-[2-(cyclopropylmethyl-amino)-ethyl]-phenyl}-methyl)-7-(2,4-difluoro-phenoxy)-3,4-dihydro-2H-isoquinolin-1-one] |
| ≤ 10 | CC(C)C(COC1CCN(CC2CC2)CC1)N1CCc2ccc(Oc3ccc(F)cc3F)cc2C1=O (stereo not drawn) [2-[1-(1-cyclopropylmethyl-piperidin-4-yloxymethyl)-2-methyl-propyl]-7-(2,4-difluoro-phenoxy)-3,4-dihydro-2H-isoquinolin-1-one] |
| ≤ 10 | CC(C)C(CC1CCC(NC2CC2)CC1)N1CCCc2ccc(Oc3ccc(F)cc3F)cc2C1=O (stereo not drawn) [2-[1-(4-Cyclopropylamino-cyclohexylmethyl)-2-methyl-propyl]-8-(2,4-difluoro-phenoxy)-2,3,4,5-tetrahydro-benzo[c]azepin-1-one] |
| ≤ 10 | Cc1cccc(C)c1Oc1ccc2c(c1)C(=O)N(C(C(=O)NC1CCN(C3CCc4ccccc43)CC1)C(C)C)CC(=O)N2 (stereo not drawn) [2-[7-(2,6-dimethyl-phenoxy)-2,5-dioxo-1,2,3,5-tetrahydro-benzo[e][1,4]diazepin-4-yl]-N-(1-indan-1-yl-piperidin-4-yl)-3-methyl-butyramide] |
| ≤ 10 | CC(C)C(CCC1CCN(CC2CC2)CC1)N1CCc2ccc(Oc3ccc(F)cc3F)cc2C1=O (stereo not drawn) [2-{1-[2-(1-Cyclopropylmethyl-piperidin-4-yl)-ethyl]-2-methyl-propyl}-7-(2,4-difluoro-phenoxy)-3,4-dihydro-2H-isoquinolin-1-one] |
| ≤ 10 | CC(C)C(C(=O)N1CCC(NC2CC2)CC1)N1CCc2ccc(Oc3ccc(F)cc3F)cc2C1=O (stereo not drawn) [2-{1-[4-(cyclopropyl-amino)-piperidine-1-carbonyl]-2-methyl-propyl}-7-(2,4-difluoro-phenoxy)-3,4-dihydro-2H-isoquinolin-1-one] |
| ≤ 10 | CC(C)C(C(=O)N1CCC(NCC2CC2)CC1)N1CCc2ccc(Oc3ccc(F)cc3F)cc2C1=O (stereo not drawn) [2-{1-[4-(cyclopropylmethyl-amino)-piperidine-1-carbonyl]-2-methyl-propyl}-7-(2,4-difluoro-phenoxy)-3,4-dihydro-2H-isoquinolin-1-one] |
| 10 to 50 | Cc1ccccc1Oc1ccc2c(c1)C(=O)N(C(C(=O)N1CCC(NCCc3ccc(F)cc3)CC1)C(C)C)CCN2C (stereo not drawn) [4-(1-{4-[2-(4-fluoro-phenyl)-ethylamino]-piperidine-1-carbonyl}-2-methyl-propyl)-1-methyl-7-o-tolyloxy-1,2,3,4-tetrahydrobenzo[e][1,4]diazepin-5-one] |
| 10 to 50 | CCc1ccccc1Oc1ccc2c(c1)C(=O)N(C(C(=O)N1CCC(NC3CC3)CC1)C(C)C)CC(=O)N2 (stereo not drawn) [4-[1-(4-cyclopropylamino-piperidine-1-carbonyl)-2-methyl-propyl]-7-(2-ethyl-phenoxy)-3,4-dihydro-1H-benzo[e][1,4]diazepine-2,5-dione] |
| ≤ 10 | CC(C)C(C(=O)N1CCC(NCCc2ccc(F)cc2)CC1)N1CCc2ccc(Oc3ccc(F)cc3F)cc2C1=O (stereo not drawn) [7-(2,4-difluoro-phenoxy)-2-(1-{4-[2-(4-fluoro-phenyl)-ethylamino]-piperidine-1-carbonyl}-2-methyl-propyl)-3,4-dihydro-2H-isoquinolin-1-one] |
| ≤ 10 | CC(C)C(C(=O)N1CCC(NCc2ccc(F)cc2)CC1)N1CCc2ccc(Oc3ccc(F)cc3F)cc2C1=O (stereo not drawn) [7-(2,4-difluoro-phenoxy)-2-{1-[4-(4-fluoro-benzylamino)-piperidine-1-carbonyl]-2-methyl-propyl}-3,4-dihydro-2H-isoquinolin-1-one] |
| ≤ 10 | CC(C)C(c1cccc(CN(C)C)c1)N1CC(=O)Nc2ccc(Oc3ccc(F)cc3F)cc2C1=O (stereo not drawn) [7-(2,4-difluoro-phenoxy)-4-[1-(3-dimethylaminomethyl-phenyl)-2-methyl-propyl]-3,4-dihydro-1H-benzo[e][1,4]diazepine-2,5-dione] |
| ≤ 10 | CC(C)NCc1cccc(C(C(C)C)N2CC(=O)Nc3ccc(Oc4ccc(F)cc4F)cc3C2=O)c1 (stereo not drawn) [7-(2,4-difluoro-phenoxy)-4-{1-[3-(isopropylamino-methyl)-phenyl]-2-methyl-propyl}-3,4-dihydro-1H-benzo[e][1,4]diazepine-2,5-dione] |
| ≤ 10 | Cc1cccc(C)c1Oc1ccc2c(c1)C(=O)N(C(C(=O)N1CCC(NCCc3ccc(F)cc3)CC1)C(C)C)CC(=O)N2 (stereo not drawn) [7-(2,6-dimethyl-phenoxy)-4-(1-{4-[2-(4-fluoro-phenyl)-ethylamino]-piperidine-1-carbonyl}-2-methyl-propyl)-3,4-dihydro-1H-benzo[e][1,4]diazepine-2,5-dione] |
| ≤ 10 | Cc1cccc(C)c1Oc1ccc2c(c1)C(=O)N(C(C(=O)N1CCC(NCc3ccc(F)cc3)CC1)C(C)C)CC(=O)N2 (stereo not drawn) [7-(2,6-dimethyl-phenoxy)-4-{1-[4-(4-fluoro-benzylamino)-piperidine-1-carbonyl]-2-methyl-propyl}-3,4-dihydro-1H-benzo[e][1,4]diazepine-2,5-dione] |
| 10 to 50 | CCc1ccccc1Oc1ccc2c(c1)C(=O)N(C(C(=O)N1CCC(NCc3ccc(F)cc3)CC1)C(C)C)CC(=O)N2 (stereo not drawn) [7-(2-ethyl-phenoxy)-4-{1-[4-(4-fluoro-benzylamino)-piperidine-1-carbonyl]-2-methyl-propyl}-3,4-dihydro-1H-benzo[e][1,4]diazepine-2,5-dione] |
| 50 to 500 | CC(C)C(C(=O)N1CCC(NCCc2ccc(F)cc2)CC1)N1CC(=O)Nc2ccc(Oc3ccccc3C(C)(C)C)cc2C1=O (stereo not drawn) [7-(2-tert-butyl-phenoxy)-4-(1-{4-[2-(4-fluoro-phenyl)-ethylamino]-piperidine-1-carbonyl}-2-methyl-propyl)-3,4-dihydro-1H-benzo[e][1,4]diazepine-2,5-dione] |
| 10 to 50 | CC(C)C(C(=O)N1CCC(NC2CC2)CC1)N1CC(=O)Nc2ccc(Oc3ccccc3C(C)(C)C)cc2C1=O (stereo not drawn) [7-(2-tert-butyl-phenoxy)-4-[1-(4-cyclopropylamino-piperidine-1-carbonyl)-2-methyl-propyl]-3,4-dihydro-1H-benzo[e][1,4]diazepine-2,5-dione] |
| ≤ 10 | CC(C)C(C(=O)N1CCC(NCc2ccc(F)cc2)CC1)N1CC=Cc2ccc(Oc3ccc(F)cc3F)cc2C1=O (stereo not drawn) [8-(2,4-difluoro-phenoxy)-2-{1-[4-(4-fluoro-benzylamino)-piperidine-1-carbonyl]-2-methyl-propyl}-2,3-dihydro-benzo[c]azepin-1-one] |
| 50 to 500 | CC(C)C(COC(=O)NC1CCN(Cc2ccccc2)CC1)N1CC(=O)Nc2ccc(Oc3ccc(F)cc3)cc2C1=O (stereo not drawn) [(1-benzyl-piperidin-4-yl)-carbamic acid 2-[7-(4-fluoro-phenoxy)-2,5-dioxo-1,2,3,5-tetrahydro-benzo[e][1,4]diazepin-4-yl]-3-methyl-butyl ester] |
| ≤ 10 | CC(C)(CO)NCc1cccc([C@@H](C2CC2)N2CCc3ccc(Oc4ccc(F)cc4F)cc3C2=O)n1 [(R)-2-(cyclopropyl(6-((1-hydroxy-2-methylpropan-2-ylamino)methyl)pyridin-2-yl)methyl)-7-(2,4-difluorophenoxy)-3,4-dihydroisoquinolin-1(2H)-one] |
| ≤ 10 | O=C1c2cc(Oc3ccc(F)cc3F)ccc2CCN1[C@@H](c1cccc(CNCC(F)F)n1)C1CC1 [(R)-2-(cyclopropyl(6-((2,2-difluoroethylamino)methyl)pyridin-2-yl)methyl)-7-(2,4-difluorophenoxy)-3,4-dihydroisoquinolin-1(2H)-one] |
| ≤ 10 | O=C1c2cc(Oc3ccc(F)cc3F)ccc2CCN1[C@@H](c1cccc(CNCCF)n1)C1CC1 [(R)-2-(cyclopropyl(6-((2-fluoroethylamino)methyl)pyridin-2-yl)methyl)-7-(2,4-difluorophenoxy)-3,4-dihydroisoquinolin-1(2H)-one] |
| ≤ 10 | O=C1c2cc(Oc3ccc(F)cc3F)ccc2CCN1[C@@H](c1cccc(CNC2CC2)n1)C1CC1 [(R)-2-(cyclopropyl(6-((cyclopropylamino)methyl)pyridin-2-yl)methyl)-7-(2,4-difluorophenoxy)-3,4-dihydroisoquinolin-1(2H)-one] |
